The text below walks through data of patent publication US20050214870A1, “Assay” (priority 2001, published 2005).

Data set [1] addresses T1, human HERG K+ channel (Homo sapiens, UniProt Q12809).
Procedure: (§1) Adherent HEK293 cells expressing human HERG, were grown in MEM Earles medium (Life Technologies) supplemented with 10% foetal calf serum (PAA Laboratories), 2 mM L-glutamine (Sigma), 1 mM sodium pyruvate (Sigma), 0.4 mg/ml G418 (Life Technologies) and an addition of 1× non-essential amino acids (Life Technologies). The cells were grown at 37° C. in a humidified atmosphere with 5% CO2 in T225 cm^3 flasks.
(§2) All cells were pelleted, washed twice with PBS and snap-frozen on dry ice prior to storage at −80° C. until required.
(§3) Cell membrane fractions were prepared from frozen aliquots of cells. All procedures were carried out at 4° C. unless otherwise stated. Frozen aliquots of cells were thawed at room temperature and resuspended in homogenisation buffer (50 mM Tris base, 10 mM KCl, 1-1.2 mM MgCl2, pH 7.4). The cells were then disrupted by homogenisation in an Omni LabTek homogeniser at 20,000 rpm for 30 seconds. The homogenate was centrifuged for 20 minutes at 48,000×g (4° C., Sorvall RC5B centrifuge) and the supernatant removed. […] Protein content was determined using a Coomassie Blue based protein assay kit. […]
In each experiment, triplicate assays were routinely performed and the data were averaged. Specific binding was analysed by nonliiear regression fit using GraphPad Prism software (GraphPad, San Diego). […]
Data set [2] deals with T1, human HERG K+ channel. The source holds these as a separate data set.
Procedure: as §1, §2, §3
The scintillation proximity assay (SPA) was carried out under identical buffer conditions to those used in the filtration assay. […] Beads were allowed to settle for a minimum of 30 minutes before plates were counted for retained radioactivity on a TopCount NTX scintillation counter.
The conditions of data set [3]: cited from earlier work.

T1 sequence (Q12809 whole entry): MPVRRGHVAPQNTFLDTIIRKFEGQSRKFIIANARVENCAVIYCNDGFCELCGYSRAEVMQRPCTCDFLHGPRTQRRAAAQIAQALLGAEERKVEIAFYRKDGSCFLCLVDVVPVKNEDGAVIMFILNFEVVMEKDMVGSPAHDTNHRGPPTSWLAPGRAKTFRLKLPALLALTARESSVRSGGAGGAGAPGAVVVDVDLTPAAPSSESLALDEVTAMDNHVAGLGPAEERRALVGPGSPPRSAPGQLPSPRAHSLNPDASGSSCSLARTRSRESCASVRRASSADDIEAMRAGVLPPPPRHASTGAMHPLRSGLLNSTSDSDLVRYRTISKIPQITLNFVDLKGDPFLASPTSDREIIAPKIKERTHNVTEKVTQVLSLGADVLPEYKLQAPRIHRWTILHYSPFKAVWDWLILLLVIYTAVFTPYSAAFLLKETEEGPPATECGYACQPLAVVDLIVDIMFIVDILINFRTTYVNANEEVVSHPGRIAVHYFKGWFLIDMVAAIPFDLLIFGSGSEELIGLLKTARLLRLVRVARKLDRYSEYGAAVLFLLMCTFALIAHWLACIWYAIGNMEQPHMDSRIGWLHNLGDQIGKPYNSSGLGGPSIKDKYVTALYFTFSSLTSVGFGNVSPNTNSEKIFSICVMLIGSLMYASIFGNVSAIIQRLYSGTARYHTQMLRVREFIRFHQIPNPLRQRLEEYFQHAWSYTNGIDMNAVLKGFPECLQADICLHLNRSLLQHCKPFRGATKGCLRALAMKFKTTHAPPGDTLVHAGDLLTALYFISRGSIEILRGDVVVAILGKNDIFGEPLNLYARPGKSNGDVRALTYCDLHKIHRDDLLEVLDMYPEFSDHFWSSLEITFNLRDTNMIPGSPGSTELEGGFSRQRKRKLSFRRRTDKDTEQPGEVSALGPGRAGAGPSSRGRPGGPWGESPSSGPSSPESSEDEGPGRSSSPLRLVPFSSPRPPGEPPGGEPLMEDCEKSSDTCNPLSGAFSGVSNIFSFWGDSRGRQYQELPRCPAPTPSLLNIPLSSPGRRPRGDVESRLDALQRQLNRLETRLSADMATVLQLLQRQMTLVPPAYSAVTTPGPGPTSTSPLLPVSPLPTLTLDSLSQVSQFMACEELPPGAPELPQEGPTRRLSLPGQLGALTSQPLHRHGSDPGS

Regarding `CC(C)NC[C@@H](O)c1ccc(NS(C)(=O)=O)cc1` [D-Sotalol], in data set [1], the “Filter binding pKi” value was less than 5. Moreover, in data set [2], the “SPA 96 pKi” value is less than 5 and the “SPA 384 pKi” value is less than 5.
On to `COc1cc(N)c(Cl)cc1C(=O)NC1CCN(CCCOc2ccc(F)cc2)CC1OC` (stereo not shown) [Cisapride], for which the “effect on QT interval of the electrocardiogram in man” value in data set [3] is “prolong the QT interval”.
